In patent publication US11345659B2, “Pipecolic esters for inhibition of the proteasome” (THE BOARD OF REGENTS OF THE UNIVERSY OF TEXAS SYSTEM, priority 2018, dated 2022):
Entries after “also recorded” stand apart in the source; their conditions may differ.

Assays:
[1] = molecular target: T1, latent core 20 S proteasome (Homo sapiens, UniProt P25787+P25789); assay: Competition of compound 3 with tRpt6 peptide, ChT-L activity of latent core; format: biochemical; conditions: 1 μM compound 3, 2 μM tRpt6
T1 construct: purified from erythrocytes; purchased Enzo Life Sciences, Inc. (Farmingdale, N.Y.); host or cells: human erythrocytes
Text: According to the most recent model of the 26 S proteasome dynamic cycle, Rpt6 succeeds the Hb-Y—X containing anchor subunits Rpt5, Rpt3, and Rpt2 in docking into the α face pockets and promoting an intermediate conformation between latent and activated (open gate) proteasomes (Dong et al. ([…]) Nature 565(7737): 49-55). […] For comparison, no competition between tRpt5, expected to occupy the α5/α6 pocket, and compound 3 was detected.
Referring to FIG. 4, the C-terminal peptide derived from Rpt6 subunit compromises inhibition of the ChT-L activity of the latent core by the compound 3; however, only when added to the proteasome prior to the inhibitor. […] 1 μM compound 3 and 2 μM tRpt6 were tested. Mean±SD; n=3 to 6.

mTOR = molecular target: T2, mTOR (Homo sapiens, UniProt P42345+P62942); assay: Western blot of S6 phosphorylation in RPMI 8226 cells; format: cell-based; conditions: RPMI 8226, 24 hours; rapamycin 2 nM, compound 3 and B1 0.2 μM
T2 construct: endogenous in cells; host or cells: RPMI 8226 (ATCC)
Protocol: Human multiple myeloma RPMI 8226 cells were purchased from American Type Culture Collection (ATCC; Manassas, Va.) and cultured according to ATCC specifications. […] The content of live cells was determined by excluding the Trypan Blue-stained cells. The cells were counted with TC20 Automated Cell Counter (Bio-Rad Laboratories, Hercules, Calif.) and EC50 was calculated with Origin Pro 2017 (OriginLab Corporation, Northampton, Mass.). When indicated, the cells were harvested, washed twice in PBS, resuspended in dilution buffer and stored in −80° C. To prepare crude lysates the thawed preparations were vortexed with glass beads and centrifuged for 5 min 5,000×g (4° C.). The supernate was centrifuged for 20 min 14,000×g. The resulting supernate was used as “crude lysate.” SDS-PAGE was carried in 12% acrylamide, Tris-glycine gels from Invitrogen. Chameleon Duo (Li-Cor) and Rainbow RPN800E (GE Healthcare) molecular weight standards were separated on each gel alongside lysates. The proteins were transferred to nitrocellulose membrane in a semi-dry system. The membranes were probed with specific primary antibodies from Life Technologies (S6, PS6) and Li-Cor (COX IV), and then with secondary antibodies from Li-Cor. In each experiment visualization of S6, PS6 and COX IV was performed on the same membrane with Odyssey Infrared Imaging System (Li-Cor). […]

[2] = Pilot toxicity study in mice
Protocol: Six injections were performed on Mondays, Wednesdays, and Fridays for two weeks, and the weight and overall condition of the mice were monitored.

[3] = 10 and 30 mg/kg intravenously, six injections in two weeks

## COc1cc(CCCOC(=O)[C@@H]2CCCCN2C(=O)OCc2ccccc2)cc(OC)c1OC [Compound 3, 1-benzyl 2-(3-(3,4,5-trimethoxyphenyl)propyl) (S)-piperidine-1,2-dicarboxylate]
[1]
  inhibition of ChT-L of the core when tRpt6 is added before the compound: significantly attenuated inhibition of the core
  inhibition of the core when the compound is preincubated before addition of tRpt6: No attenuation was observed
mTOR
  activity of mTOR (phosphorylation of S6): neither B1 nor compound 3 affected the activity of mTOR; also recorded: did not inhibit the S6 phosphorylation
[2]; [3]
  animals' behavior: No differences in the animals' behavior were noted
  body weight versus control mice: did not differ significantly
[2]; highest tested dose 30 mg/kg
  toxicity for mice: non-toxic for mice up to a highest tested dose of 30 mg/kg
